In publication PMC5538713, “RORγt and RORα signature genes in human Th17 cells” (PLoS ONE, 2017):
pIC50: −log10 of the molar value. Read-outs that look alike come from different tables or passages of the source.

Legend:
[1] = system: human CD4 T cells, IL-17A production; assay: Th17 differentiation assay (IL-17A production); assay type: cell-based; details: 72 h; for IC50: Homo sapiens, CD4+ T, read-out: Th17 Differentiation (IL-17A production) (IC50, nM)
[2] = molecular target: T1, 5HT5A (h) (Homo sapiens, UniProt P47898); assay: Cerep selectivity panel; assay type: binding; details: for inhibition at 1 µM: read-out: % Inhibition at 1µM; for inhibition at 10 µM: read-out: % Inhibition at 10µM
T1 construct: purchased Cerep
Description: (§1) Supplementary file pone.0181868.s003.docx: S3 Table Selectivity profile of RORγt inverse agonists A, B, C and D. Compounds were evaluated at 1 μM and 10 μM in a panel of assays against 50 receptors, ion channels and transporters (Profile service by Cerep Inc.). (DOCX) Click here for additional data file.
(§2) S3 Table. RORɣt inverse agonists A, B, C and D were evaluated at 1 µM and 10 µM in a panel of assays against 50 receptors, ion channels and transporters (Profile service by Cerep Inc.).

[3] = molecular target: T2, AT1 (h) (Homo sapiens, UniProt P30556); assay: Cerep selectivity panel; assay type: binding; details: for inhibition at 1 µM: read-out: % Inhibition at 1µM; for inhibition at 10 µM: read-out: % Inhibition at 10µM
T2 construct: purchased Cerep
T2 sequence (P30556 1-359): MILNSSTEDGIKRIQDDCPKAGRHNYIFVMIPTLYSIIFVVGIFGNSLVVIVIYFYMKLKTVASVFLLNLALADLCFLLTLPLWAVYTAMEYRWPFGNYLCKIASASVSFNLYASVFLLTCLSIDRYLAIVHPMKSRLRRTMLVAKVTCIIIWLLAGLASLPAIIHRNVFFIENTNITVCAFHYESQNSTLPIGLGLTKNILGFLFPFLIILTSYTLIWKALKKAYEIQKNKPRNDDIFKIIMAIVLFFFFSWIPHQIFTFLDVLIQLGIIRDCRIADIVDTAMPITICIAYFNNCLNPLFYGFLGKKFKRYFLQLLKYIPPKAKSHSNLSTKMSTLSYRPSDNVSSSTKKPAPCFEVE
Description: as §1, §2

[4] = molecular target: T3, Ab1 (h) (Homo sapiens, UniProt P08588); assay: Cerep selectivity panel; assay type: binding; details: for inhibition at 1 µM: read-out: % Inhibition at 1µM; for inhibition at 10 µM: read-out: % Inhibition at 10µM
T3 construct: purchased Cerep
Description: as §1, §2

[5] = molecular target: T4, D2S (h) (Homo sapiens, UniProt P14416); assay: Cerep selectivity panel; assay type: binding; details: for inhibition at 1 µM: read-out: % Inhibition at 1µM; for inhibition at 10 µM: read-out: % Inhibition at 10µM
T4 construct: purchased Cerep
Description: as §1, §2

[6] = molecular target: T5, NK2 (h) (Homo sapiens, UniProt P21452); assay: Cerep selectivity panel; assay type: binding; details: for inhibition at 1 µM: read-out: % Inhibition at 1µM; for inhibition at 10 µM: read-out: % Inhibition at 10µM
T5 construct: purchased Cerep
T5 sequence (P21452 1-398): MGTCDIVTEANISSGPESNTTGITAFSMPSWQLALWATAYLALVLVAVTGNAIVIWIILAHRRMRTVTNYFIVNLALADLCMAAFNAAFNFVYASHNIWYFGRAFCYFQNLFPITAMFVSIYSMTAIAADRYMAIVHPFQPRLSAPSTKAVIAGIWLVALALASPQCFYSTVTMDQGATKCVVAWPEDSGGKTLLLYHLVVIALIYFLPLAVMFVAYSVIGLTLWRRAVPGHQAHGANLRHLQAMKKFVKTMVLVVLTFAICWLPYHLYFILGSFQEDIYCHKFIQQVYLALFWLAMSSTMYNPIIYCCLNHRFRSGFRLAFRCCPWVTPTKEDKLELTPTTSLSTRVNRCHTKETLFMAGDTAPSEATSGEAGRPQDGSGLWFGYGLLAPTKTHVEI
Description: as §1, §2

[7] = molecular target: T6, NK3 (h) (Homo sapiens, UniProt P29371); assay: Cerep selectivity panel; assay type: binding; details: for inhibition at 1 µM: read-out: % Inhibition at 1µM; for inhibition at 10 µM: read-out: % Inhibition at 10µM
T6 construct: purchased Cerep
T6 sequence (P29371 1-465): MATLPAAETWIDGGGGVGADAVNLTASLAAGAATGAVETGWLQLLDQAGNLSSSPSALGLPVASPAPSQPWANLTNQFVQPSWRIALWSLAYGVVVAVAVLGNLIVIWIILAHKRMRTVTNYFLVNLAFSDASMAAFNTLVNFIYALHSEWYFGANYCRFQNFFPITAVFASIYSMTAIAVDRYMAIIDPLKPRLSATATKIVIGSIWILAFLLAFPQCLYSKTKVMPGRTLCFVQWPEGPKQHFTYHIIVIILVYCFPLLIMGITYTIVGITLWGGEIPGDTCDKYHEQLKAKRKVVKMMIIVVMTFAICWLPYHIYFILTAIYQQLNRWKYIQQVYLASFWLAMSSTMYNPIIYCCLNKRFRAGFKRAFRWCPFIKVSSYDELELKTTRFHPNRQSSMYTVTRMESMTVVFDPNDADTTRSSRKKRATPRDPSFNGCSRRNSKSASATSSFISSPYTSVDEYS
Description: as §1, §2

[8] = molecular target: T7, OP3 (h) (Homo sapiens, UniProt P35372); assay: Cerep selectivity panel; assay type: binding; details: for inhibition at 1 µM: read-out: % Inhibition at 1µM; for inhibition at 10 µM: read-out: % Inhibition at 10µM
T7 construct: purchased Cerep
Description: as §1, §2

[9] = molecular target: T8, ɣ2 (h) (Homo sapiens, UniProt P49146); assay: Cerep selectivity panel; assay type: binding
T8 construct: purchased Cerep
T8 sequence (P49146 1-381): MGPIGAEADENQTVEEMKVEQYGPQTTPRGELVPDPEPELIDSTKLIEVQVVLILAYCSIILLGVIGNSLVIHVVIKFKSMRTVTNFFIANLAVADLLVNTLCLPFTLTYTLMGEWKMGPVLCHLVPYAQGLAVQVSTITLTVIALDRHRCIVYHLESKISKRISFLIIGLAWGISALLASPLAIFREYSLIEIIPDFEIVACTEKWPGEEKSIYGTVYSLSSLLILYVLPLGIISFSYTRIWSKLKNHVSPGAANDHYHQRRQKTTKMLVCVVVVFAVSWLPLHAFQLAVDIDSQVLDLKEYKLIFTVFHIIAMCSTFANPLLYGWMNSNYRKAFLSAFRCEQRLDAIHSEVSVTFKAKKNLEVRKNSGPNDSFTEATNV
Description: as §1, §2

[10] = system: Na+ Channel; assay: Cerep selectivity panel; assay type: binding
[11] = molecular target: T9, 5-HT6 (h) (Homo sapiens, UniProt P50406); assay: Cerep selectivity panel; assay type: binding; details: for inhibition at 10 µM: read-out: % Inhibition at 10µM
T9 construct: purchased Cerep
Description: as §1, §2

[12] = system: SK+ Ca; assay: Cerep selectivity panel; assay type: binding

T3 sequence (P08588 whole entry): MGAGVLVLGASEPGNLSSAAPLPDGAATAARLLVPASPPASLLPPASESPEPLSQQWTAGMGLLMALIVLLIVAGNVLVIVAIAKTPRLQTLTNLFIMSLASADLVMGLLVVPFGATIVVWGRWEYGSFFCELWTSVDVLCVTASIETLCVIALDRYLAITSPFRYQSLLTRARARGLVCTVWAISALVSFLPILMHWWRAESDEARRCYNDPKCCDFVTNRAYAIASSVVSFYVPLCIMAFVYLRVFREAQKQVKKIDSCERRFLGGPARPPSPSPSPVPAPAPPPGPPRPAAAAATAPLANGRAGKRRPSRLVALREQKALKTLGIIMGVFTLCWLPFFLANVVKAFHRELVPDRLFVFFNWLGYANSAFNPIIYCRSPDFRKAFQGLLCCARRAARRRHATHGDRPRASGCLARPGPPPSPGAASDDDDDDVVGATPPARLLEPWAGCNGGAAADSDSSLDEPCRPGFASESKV
T9 sequence (P50406 whole entry): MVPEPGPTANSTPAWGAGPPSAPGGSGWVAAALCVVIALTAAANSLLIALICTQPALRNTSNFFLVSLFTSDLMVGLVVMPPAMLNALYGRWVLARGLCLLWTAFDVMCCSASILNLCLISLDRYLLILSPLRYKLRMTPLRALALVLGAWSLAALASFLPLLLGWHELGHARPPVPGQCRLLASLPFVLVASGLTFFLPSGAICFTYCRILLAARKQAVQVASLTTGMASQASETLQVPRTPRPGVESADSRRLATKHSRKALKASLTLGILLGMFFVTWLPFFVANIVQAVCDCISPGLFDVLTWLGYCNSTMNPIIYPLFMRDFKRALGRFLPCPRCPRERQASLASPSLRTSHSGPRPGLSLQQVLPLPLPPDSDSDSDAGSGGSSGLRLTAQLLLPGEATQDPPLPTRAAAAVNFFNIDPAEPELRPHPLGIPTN
T1 sequence (P47898 whole entry): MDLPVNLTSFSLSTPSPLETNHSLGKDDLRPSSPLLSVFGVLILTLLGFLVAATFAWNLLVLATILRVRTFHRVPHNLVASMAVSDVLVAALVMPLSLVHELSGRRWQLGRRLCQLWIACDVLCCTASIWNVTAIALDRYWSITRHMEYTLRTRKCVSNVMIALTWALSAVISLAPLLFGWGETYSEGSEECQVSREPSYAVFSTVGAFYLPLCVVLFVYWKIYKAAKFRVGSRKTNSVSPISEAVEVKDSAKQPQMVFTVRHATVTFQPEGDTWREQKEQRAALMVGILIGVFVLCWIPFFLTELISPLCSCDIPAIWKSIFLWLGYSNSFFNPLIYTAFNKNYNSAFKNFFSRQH
T7 sequence (P35372 whole entry): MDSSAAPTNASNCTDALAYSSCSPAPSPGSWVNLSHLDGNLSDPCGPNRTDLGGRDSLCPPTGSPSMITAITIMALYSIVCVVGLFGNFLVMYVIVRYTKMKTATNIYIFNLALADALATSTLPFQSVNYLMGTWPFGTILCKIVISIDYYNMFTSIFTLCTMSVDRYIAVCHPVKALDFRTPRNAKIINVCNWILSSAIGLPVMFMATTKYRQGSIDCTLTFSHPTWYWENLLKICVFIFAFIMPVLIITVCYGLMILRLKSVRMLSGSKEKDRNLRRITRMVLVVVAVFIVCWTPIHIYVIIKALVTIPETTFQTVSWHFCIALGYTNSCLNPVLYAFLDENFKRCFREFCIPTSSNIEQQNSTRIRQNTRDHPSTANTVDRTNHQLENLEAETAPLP
T4 sequence (P14416 1-414 isoform P14416-2): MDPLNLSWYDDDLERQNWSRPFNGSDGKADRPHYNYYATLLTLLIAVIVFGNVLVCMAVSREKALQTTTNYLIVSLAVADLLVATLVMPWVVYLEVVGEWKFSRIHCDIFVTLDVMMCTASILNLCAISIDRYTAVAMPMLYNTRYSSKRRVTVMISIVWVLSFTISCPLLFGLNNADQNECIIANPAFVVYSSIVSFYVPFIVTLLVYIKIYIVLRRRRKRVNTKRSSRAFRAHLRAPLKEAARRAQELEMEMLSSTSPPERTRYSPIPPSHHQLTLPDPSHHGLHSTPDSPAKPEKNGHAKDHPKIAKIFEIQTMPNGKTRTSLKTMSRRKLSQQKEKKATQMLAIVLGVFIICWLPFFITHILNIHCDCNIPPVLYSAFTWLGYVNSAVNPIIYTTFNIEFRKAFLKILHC

Compound | IC50 [1] | inhibition at 1 µM [2] | inhibition at 10 µM [2] | inhibition at 10 µM [3] | inhibition at 1 µM [4] | inhibition at 10 µM [4] | inhibition at 1 µM [5] | inhibition at 1 µM [6] | inhibition at 10 µM [6] | inhibition at 1 µM [7] | inhibition at 10 µM [7] | inhibition at 1 µM [8] | inhibition at 10 µM [8] | inhibition at 10 µM [9] | % Inhibition at 10µM [10] | inhibition at 10 µM [11] | % Inhibition at 10µM [12] | other results
COc1nc2ccc([C@](O)(c3ccc(Cl)cc3)c3cncn3C)cc2c(Cl)c1Cc1ccc(-n2cccn2)cc1 [B] | 84.5 nM | 25% | 31% | 16% | 0% | 2% | 7% | 9% | 30% | 1% | 10% | 3% | 3% | 10% | 3% |  |  | inhibition at 1 µM [3]: 1%
COc1nc2ccc([C@@](O)(c3ccccc3)C3CCN(C(C)=O)CC3)cc2c(Cl)c1Cc1ccc(-n2cccn2)cc1 [C] | 18.3 nM | 13% | 23% | 11% |  |  | 10% |  | 19% | 21% | 31% | 2% | 15% | 5% |  | 22% | 5% | inhibition at 1 µM ([11]; read-out: % Inhibition at 1µM): 20%; % Inhibition at 1µM ([12]; 1 µM): 1%
COc1nc2ccc([C@@](O)(c3ccc(C)nc3C)c3cnnn3C)cc2c(Cl)c1Cc1ccc(C(F)(F)F)cc1 [compound A] |  |  |  |  |  |  |  |  |  |  |  |  |  |  | 45% |  | 1% | pIC50 ([1]; human CD4 T cells, 3 days, read-out: Th17 Differentiation (IL-17A production) (IC50)): 8.43; inhibition at 10 µM ([11]; 5-HT6 (h), 10 µM): 10%; inhibition at 1 µM ([2]; 5HT5A (h), 1 µM): 7%; inhibition at 10 µM ([2]; 5HT5A (h), 10 µM): 84%; inhibition at 1 µM ([3]; AT1 (h), 1 µM): 0%; inhibition at 10 µM ([3]; AT1 (h), 10 µM): 32%; inhibition at 1 µM ([4]; Ab1 (h), 1 µM): 0%; inhibition at 10 µM ([4]; Ab1 (h), 10 µM): 10%; inhibition at 1 µM ([5]; D2S (h), 1 µM): 12%; inhibition at 10 µM ([5]; D2S (h), 10 µM): 70%; inhibition at 1 µM ([6]; NK2 (h), 1 µM): 7%; inhibition at 10 µM ([6]; NK2 (h), 10 µM): 41%; inhibition at 1 µM ([7]; NK3 (h), 1 µM): 9%; inhibition at 10 µM ([7]; NK3 (h), 10 µM): 57%; inhibition at 10 µM ([8]; OP3 (h), 10 µM): 17%; % Inhibition at 1µM ([10]; 1 µM): 20%
CN(C)c1nc2ccc(C(O)(c3ccncc3)c3cncn3C)cc2c(Cl)c1-c1ccccc1 (stereo not shown) [compound D] | 22.2 nM |  | 42% | 28% | 3% | 2% | 7% | 9% | 98% |  | 45% | 3% | 30% | 15% |  | 18% |  | inhibition at 10 µM [5]: 25%; inhibition at 1 µM ([9]; 1 µM): 10%
